According to patent US9770026B2, “Substituted pyrimidine compound and uses thereof” (Shenyang Sinochem Agrochemicals R&D Co., Ltd., priority 2012, dated 2017):

What was measured:
rice blast = assay: microbe, parasite or virus in culture; assay type: cell-based; conditions: Pyricularia oryzae, read-out: inhibition rate against rice blast, 25 ppm, in vitro
Diamond back moth = assay: insecticidal activity against diamond back moth, airbrush spray; assay type: in vivo; conditions: 72 h; for pest or weed control at 10 µg/mL: 10 mg/L; for pest or weed control at 100 µg/mL: 100 mg/L; for pest or weed control at 600 µg/mL: 600 mg/L
In short: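 Airbrush leaf-disc spray test: both faces of 2 cm cabbage discs received 0.5 ml of test solution at 0.7 kg/cm^2. Solutions were made in acetone:methanol (1:1) and brought to concentration with 0.1% Tween 80 in water. Ten second-instar larvae per disc, triplicates, were held at 25° C and 60˜70% R.H., with mortality recorded at 72 hrs.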

armyworm = assay: bioactivity test against armyworm, airbrush spray; assay type: in vivo; conditions: 72 h, read-out: Insecticidal activity against armyworm (%); for pest or weed control at 600 µg/mL: 600 mg/L
[1] = tested on: Green peach aphids (Myzus Persicae Sulzer); assay: bioactivity test against green peach aphid, airbrush foliar spray; assay type: in vivo; conditions: Myzus persicae, foliar, 48 h, contrastive test, read-out: Insecticidal activity against peach aphid (%); for pest or weed control at 2.5 µg/mL: 2.5 mg/L; for pest or weed control at 5 µg/mL: 5 mg/L; for pest or weed control at 10 µg/mL: 10 mg/L; for pest or weed control at 100 µg/mL: 100 mg/L; for pest or weed control at 600 µg/mL: 600 mg/L
In short: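 Aphids (15-30 per cabbage leaf disc) on moist filter paper were airbrush-sprayed at 10 psi, 0.5 mL, with compound from acetone:methanol (1:1) diluted in water with 0.1% tween 80. Held at 25±1 C, 60±5% RH; survivors counted after 48 hrs to give death rates.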

wheat powdery mildew = assay: protectant activity in vivo against wheat powdery mildew; conditions: Triticum aestivum, 168 h, protectant activity
cucumber downy mildew = assay: protectant activity in vivo against cucumber downy mildew; conditions: Cucumis sativus, 168 h, protectant activity
corn rust = assay: protectant activity in vivo against corn rust; conditions: Zea mays, 168 h, protectant activity

| Compound | inhibition at 25 ppm (rice blast) [%] | pest or weed control at 10 µg/mL (Diamond back moth) [%] | pest or weed control at 100 µg/mL (Diamond back moth) [%] | pest or weed control at 600 µg/mL (Diamond back moth) [%] | pest or weed control at 600 µg/mL (armyworm) [%] | pest or weed control at 2.5 µg/mL [1] [%] | pest or weed control at 5 µg/mL [1] [%] | pest or weed control at 10 µg/mL [1] [%] | pest or weed control at 100 µg/mL [1] [%] | pest or weed control at 600 µg/mL [1] [%] | other results |
| --- | --- | --- | --- | --- | --- | --- | --- | --- | --- | --- | --- |
| FC(F)(F)c1ccc(Oc2ccc(CCNc3ncnc4ccccc34)cc2)cc1 [CK11, reference compound] | 0 | 5 | 55 | 86 | 29 | 0 | 25 | 85 | 98 | 100 | pest or weed control at 6.25 µg/mL (wheat powdery mildew; read-out: control effect against wheat powdery mildew (%), 6.25 mg/L): 0%; pest or weed control at 25 µg/mL (wheat powdery mildew; read-out: control effect against wheat powdery mildew (%), 25 mg/L): 40%; pest or weed control at 100 µg/mL (wheat powdery mildew; read-out: control effect against wheat powdery mildew (%), 100 mg/L): 60%; pest or weed control at 400 µg/mL (wheat powdery mildew; read-out: control effect against wheat powdery mildew (%), 400 mg/L): 100%; pest or weed control at 25 µg/mL (cucumber downy mildew; read-out: control effect against cucumber downy mildew (%), 25 mg/L): 0%; pest or weed control at 50 µg/mL (cucumber downy mildew; read-out: control effect against cucumber downy mildew (%), 50 mg/L): 0%; pest or weed control at 100 µg/mL (cucumber downy mildew; read-out: control effect against cucumber downy mildew (%), 100 mg/L): 30%; pest or weed control at 400 µg/mL (cucumber downy mildew; read-out: control effect against cucumber downy mildew (%), 400 mg/L): 85% |
| CCc1ncnc(NC(C)c2ccc(Oc3ccc(C(F)(F)F)cn3)cc2)c1Cl (stereo not drawn) [CK40, reference compound] | < 50 | 13 | 29 | 100 | 43 | 0 | 27 | 72 | 100 | 100 | pest or weed control at 10 µg/mL (armyworm; 10 mg/L): 0%; pest or weed control at 100 µg/mL (armyworm; 100 mg/L): 6%; pest or weed control at 0.4 µg/mL (corn rust; read-out: control effect against corn rust (%), 0.4 mg/L): 0%; pest or weed control at 1.6 µg/mL (corn rust; read-out: control effect against corn rust (%), 1.6 mg/L): 30%; pest or weed control at 6.25 µg/mL (corn rust; read-out: control effect against corn rust (%), 6.25 mg/L): 70%; pest or weed control at 25 µg/mL (corn rust; read-out: control effect against corn rust (%), 25 mg/L): 90%; pest or weed control at 100 µg/mL (corn rust; read-out: control effect against corn rust (%), 100 mg/L): 100%; pest or weed control at 400 µg/mL (corn rust; read-out: control effect against corn rust (%), 400 mg/L): 100% |
